Earlier results on two compounds are cited in patent US20260092079A1, “MANUFACTURE METHOD FOR AQUEOUS FORMULATION OF MANGANESE-CONTAINING COORDINATION COMPLEX, FORMULATION, AND METHOD OF TREATMENT” (GALERA LABS, LLC, priority 2019, published 2026).

Data set [1] relates to experimental model of colitis. Conditions: rats.
For the next data set, the system named is inflammation. Conditions: rat model.
Data set [2] deals with collagen-induced arthritis. To be noted: rat.
Data set [3] has as its system radiation-induced oral mucositis. To be noted: hamster, acute radiation-induced oral mucositis.
Data set [4] deals with lethal total body irradiation. Conditions: adult mice.
Data set [5] relates to VEGFr inhibitor-induced pulmonary disease. To be noted: rat model.
Another data set relates to oral mucositis. Conditions: head-and-neck cancer patients undergoing chemoradiation therapy.

Take `[Cl-].[Cl-].[Mn+2].c1cc2nc(c1)CN[C@@H]1CCCC[C@H]1NCCN[C@@H]1CCCC[C@H]1NC2` [GC4403]: the “Injury to the colon” value in data set [1] was “very significantly reduce the injury to the colon”. Besides, the Inflammation entry in the data set on inflammation is “inhibit inflammation”. For the same compound, the Joint disease entry in data set [2] is on record as “prevent joint disease”. Also, the Radiation damage entry in data set [3] and in data set [4] was “attenuate the radiation damage” each time.

Turning to `[Cl][Mn][Cl].c1cc2nc(c1)CN[C@H]1CCCC[C@@H]1NCCN[C@H]1CCCC[C@@H]1NC2` [GC4419], the “VEGFr inhibitor-induced pulmonary disease” value in data set [5] is reported as “attenuate VEGFr inhibitor-induced pulmonary disease”. In the data set on oral mucositis, the Oral mucositis entry is given as “reduce oral mucositis”.
